Measured values published in article PMC11078990, “Identification and characterization of small molecule inhibitors of the LINE-1 retrotransposon endonuclease” (Nature Communications, 2024).
Several values for one entry are separate records, joined by “and”; a condition that tells them apart may be missing. Equal values may be shown once. Read-outs that look alike come from different tables or passages of the source.

Key:
L1 retrotransposition = assay: HeLa dual-luciferase L1 retrotransposition assay; assay type: cell-based, human
[1] = system: senescent LF1 human diploid fibroblasts (IL6, IL1β, CCL2, IFNα, MMP3); assay: RT-qPCR of inflammatory markers in replicatively senescent fibroblasts; assay type: cell-based
[2] = system: senescent LF1 human diploid fibroblasts (IFN-I and Aging gene sets); assay: RNA-seq / Gene Set Enrichment Analysis of senescent cultures; assay type: cell-based; details: senescent cultures treated 1 month beginning at 3 months senescence
[3] = molecular target: L1 EN (LINE-1 retrotransposon endonuclease domain) (Homo sapiens, UniProt O00370, N5T); assay: Fluorescent oligonucleotide EN nicking activity assay; assay type: biochemical
APE1 = molecular target: T1, APE1 (Homo sapiens, UniProt P27695); assay: APE1 fluorescent oligonucleotide activity assay (abasic site substrate); assay type: biochemical; details: for activity at 25 µM: read-out: APE1 activity (%)
T1 construct: purchased New England Biolabs (NEB) M0282S

[4] = system: substrate oligonucleotide used in the EN activity assay; assay type: binding; design: key to Binding Detected? (Y/N): Binding Detected? (Y/N); Binding Detected? (Y/N)
[5] = system: DNA fragmentation (comet tail length) in HeLa Tet-On cells expressing EN domain; assay: Neutral comet assay, EN domain-only constructs; assay type: cell-based, human
HeLa Tet-On cells = details: human
[6] = system: L1-induced DNA damage in HeLa Tet-On cells (full-length L1); assay: γ-H2AX immunofluorescence assay, full-length L1 constructs; assay type: cell-based, human
[7] = read-out: EN activity, percent of no inhibitor control

Sequence of L1 EN (LINE-1 retrotransposon endonuclease domain) (O00370 1-239 N5T): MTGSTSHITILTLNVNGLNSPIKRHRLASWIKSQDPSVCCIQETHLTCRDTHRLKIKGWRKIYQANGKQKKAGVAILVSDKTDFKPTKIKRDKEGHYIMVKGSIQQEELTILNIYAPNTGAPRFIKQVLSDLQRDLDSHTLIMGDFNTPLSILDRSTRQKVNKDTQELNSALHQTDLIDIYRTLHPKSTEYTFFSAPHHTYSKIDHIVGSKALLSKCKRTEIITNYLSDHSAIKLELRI

| SMILES | EN activity, percent of no inhibitor control ([3]; 5 µM) | EN activity, percent of no inhibitor control ([3]; 25 µM) | EN activity, percent of no inhibitor control ([3]; 50 µM) | EN activity, percent of no inhibitor control ([3]; 100 µM) | EN activity, percent of no inhibitor control ([3]; 250 µM) | EN activity, percent of no inhibitor control ([3]; 500 µM) | EN activity, percent of no inhibitor control ([3]; 1000 µM) | remaining activity at 25 µM [3, 7] | APE1 percent activity, Replicate 1 (APE1) | APE1 percent activity, Replicate 2 (APE1) | APE1 percent activity, Replicate 3 (APE1) | APE1 percent activity, average (APE1) | Percent APE1 activity, average (APE1) | Percent APE1 activity, replicates (APE1) | activity at 25 µM (APE1) | Binding Detected? (Y/N) [4] | Luciferase (retrotransposition), average (L1 retrotransposition) | Luciferase (retrotransposition), replicates (L1 retrotransposition) | Nuclei comet tail length, average (WT = 1) [5] | PrestoBlue (viability), average (HeLa Tet-On cells) | further results |
| --- | --- | --- | --- | --- | --- | --- | --- | --- | --- | --- | --- | --- | --- | --- | --- | --- | --- | --- | --- | --- | --- |
| Nc1ccn([C@@H]2CS[C@H](CO)O2)c(=O)n1 [3TC, Lamivudine, reference compound] |  |  |  |  |  |  |  |  |  |  |  |  |  |  |  |  |  |  |  |  | Luciferase (retrotransposition), average (L1 retrotransposition; Figure 4a Graph 1, 10 μM, 0 μM average 9.554): 1.753; Luciferase (retrotransposition), replicates (L1 retrotransposition; Figure 4a Graph 1, 10 μM, Replicates 1-4, 0 μM average 9.554): 1.525 and 1.282 and 1.336 and 2.868; Luciferase (retrotransposition), average (L1 retrotransposition; Figure 4a Graph 2, 10 μM, 0 μM average 9.679): 1.648; Luciferase (retrotransposition), replicates (L1 retrotransposition; Figure 4a Graph 2, 10 μM, Replicates 1-4, 0 μM average 9.679): 2.547 and 1.556 and 1.337 and 1.153; Luciferase (retrotransposition), average (L1 retrotransposition; Figure 4a Graph 3, 10μM, 0μM average 17.91): 3.723; Luciferase (retrotransposition), replicates (L1 retrotransposition; Figure 4a Graph 3, 10μM, Replicates 1-4, 0μM average 17.91): 3.272 and 3.5538 and 3.891 and 4.176; Luciferase (retrotransposition), average (L1 retrotransposition; Figure 4a Graph 4, 10μM, 0μM average 3.426): 0.6208; Luciferase (retrotransposition), replicates (L1 retrotransposition; Figure 4a Graph 4, 10μM, Replicates 1-4, 0μM average 3.426): 0.3413 and 0.6639 and 1.079 and 0.3984; Luciferase (retrotransposition), average (L1 retrotransposition; Figure 4a Graph 5, 10μM, 0μM average 4.537): 0.4847; Luciferase (retrotransposition), replicates (L1 retrotransposition; Figure 4a Graph 5, 10μM, Replicates 1-4, 0μM average 4.537): 0.5984 and 0.4472 and 0.3986 and 0.4945; MMP3 RT-qPCR, average (EP = 1) ([1]; 10 μM, senescent cells, SEN control […], 3 replicates): 1.892; IL1β RT-qPCR, average (EP = 1) ([1]; 10 μM, senescent cells, SEN control 8.256, 3 replicates): 10.61; CCL2 RT-qPCR, average (EP = 1) ([1]; 10 μM, senescent cells, SEN control 8.589, 3 replicates): 4.199; IFNα RT-qPCR, average (EP = 1) ([1]; 10 μM, senescent cells, SEN control 18.65, 3 replicates): 15.66; IL6 RT-qPCR, average (EP = 1) ([1]; 10 μM, senescent cells, SEN control 22.45, 3 replicates): 13.65; Expression of IFN-I gene set and aging gene set (RNA-seq, GSEA) [2]: decreased expression |
| C/C(=N\Nc1ccc([N+](=O)[O-])cc1[N+](=O)[O-])c1ccc(-n2nncc2C(C)(C)C)cc1 [AD7] | 101.994% and 98.1742% and 77.1828% | 96.2152% and 94.2464% | 105.792% and 87.7855% | 94.7448% and 86.2812% | 48.1744% and 80.4178% and 71.8348% | 47.3691% | 33.3657% and 34.4723% | 86.8% | 123.061% | 113.794% | 119.588% | 118.815% | 103.1% | 105.066% and 99.3868% and 104.87% | 119 ± 4.7% | N | 2.314 | 2.087 and 1.842 and 2.6465 and 2.682 | 0.8142 | 16.01 | EN activity, percent of no inhibitor control ([3]; 750 µM): 44.5063% and 42.7569%; EN activity, percent of no inhibitor control ([3]; 1500 µM): 8.772% and 6.335%; remaining activity at 50 µM [3, 7]: 88.2%; remaining activity at 100 µM [3, 7]: 97.9%; remaining activity at 500 µM [3, 7]: 61.3%; remaining activity at 750 µM [3, 7]: 34.4%; remaining activity at 1000 µM [3, 7]: 39.3%; remaining activity at 1500 µM [3, 7]: 7.91%; Effect on L1 retrotransposition (L1 retrotransposition): some activity in the retrotransposition assay |
| O=C(NCCCCCCNC(=O)Nc1cccc([N+](=O)[O-])c1)Nc1cccc([N+](=O)[O-])c1 [AD32] | 106.426% and 105.894% |  | 115.028% and 130.021% and 99.6138% | 108.576% and 99.1955% | 76.4578% and 67.7464% | 42.369% and 27.0684% | 5.092% and 3.166% and 2.499% |  | 105.807% | 106.706% | 111.118% | 107.877% | 120.4% | 115.512% and 123.038% and 122.705% | 108 ± 2.8% | N | 1.01 | 1.2931 and 0.8621 and 0.8883 and 0.9964 | 0.6103 | 14.98 | EN activity, percent of no inhibitor control ([3]; 1 µM): 89.1778% and 95.2749%; EN activity, percent of no inhibitor control ([3]; 20 µM): 107.498% and 97.7763% and 80.1287%; EN activity, percent of no inhibitor control ([3]; 750 µM): 20.3358% and 21.9713%; remaining activity at 1 µM [3, 7]: 93.7%; remaining activity at 5 µM [3, 7]: 103%; remaining activity at 100 µM [3, 7]: 106%; remaining activity at 250 µM [3, 7]: 71.9%; remaining activity at 500 µM [3, 7]: 46.5%; remaining activity at 750 µM [3, 7]: 20.5%; Effect on L1 retrotransposition (L1 retrotransposition): some activity in the retrotransposition assay |
| C/C(C[C@H](c1ccccc1)c1c(O)c2ccccc2oc1=O)=N\Nc1ccc([N+](=O)[O-])cc1[N+](=O)[O-] [AD3] | 93.5701% and 96.3453% | 99.0637% and 102.756% | 87.9685% and 80.8738% and 62.1552% | 53.1232% and 37.4643% and 59.5468% | 26.1232% and 25.9631% | 1.104% and 2.0558% and 4.103% | 0.8695% and 0.8159% | 95.7% | 92.838% |  | 104.006% | 103.516% | 95.58% | 101.896% and 94.978% and 89.8705% | 104 ± 10.4% | N | 1.378 | 0.9116 and 1.591 and 1.485 and 1.524 | 0.568 | 15.41 | EN activity, percent of no inhibitor control ([3]; 1 µM): 108.117% and 78.9256% and 93.3444%; EN activity, percent of no inhibitor control ([3]; 10 µM): 99.3729%; remaining activity at 5 µM [3, 7]: 89.6%; remaining activity at 10 µM [3, 7]: 99.4%; remaining activity at 250 µM [3, 7]: 25.7%; remaining activity at 1000 µM [3, 7]: 1.63%; Inhibition of DNA damage, full-length L1 experiments [6]: best inhibition; IL1β RT-qPCR, average (EP = 1) [1]: 4.703; IL6 RT-qPCR, average (EP = 1) [1]: 6.462; Inhibition of inflammation in senescent cells [1]: showed efficacy; MMP3 RT-qPCR, average (EP = 1) [1]: 2.136 |
| O=C(CCCCCCCCCCC(=O)Nc1cccc([N+](=O)[O-])c1)Nc1cccc([N+](=O)[O-])c1 [AD11] | 48.2874% and 49.6964% | 8.361% and 7.932% | 2.144% and 3.212% | 0.8407% and 0.78% and 1.633% |  |  |  | 6.58% | 77.2032% | 89.204% | 71.7475% | 79.3849% |  |  | 79.4 ± 8.9% | N | 3.993 | 4.575 and 4.225 and 3.621 and 3.549 | 0.8117 | 15.84 | EN activity, percent of no inhibitor control ([3]; 0.1 µM): 84.764% and 74.2098%; EN activity, percent of no inhibitor control ([3]; 0.5 µM): 87.7394% and 79.0744%; EN activity, percent of no inhibitor control ([3]; 1 µM): 78.4622% and 83.3471%; remaining activity at 0.1 µM [3, 7]: 87.2%; remaining activity at 0.5 µM [3, 7]: 73.3%; remaining activity at 1 µM [3, 7]: 78.1%; remaining activity at 5 µM [3, 7]: 54.9%; remaining activity at 50 µM [3, 7]: 2.44%; remaining activity at […] [3, 7]: 65.8%; L1 retrotransposition, average (L1 retrotransposition): 2.364 and 2.4307 and 2.013 and 1.968 and 2.0024 and 1.896 and 1.695 and 1.484 |
